{
  "source": "patent US10682397B2",
  "about": "“Methods of treating fragile X syndrome and related disorders” (Massachusetts Institute of Technology, priority 2015, dated 2020)",
  "key": {"ERK1/2": {"tested_on": "ERK1/2", "test": "Immunoblotting of ERK1/2 phosphorylation in hippocampal slices", "format": "cell-based, mice", "conditions": "CDPPB 10 μM, 30 min", "protocol": "(§1) Hippocampal slices were prepared and recovered as described in metabolic labeling experiments. Sets of slices were stimulated with CDPPB (10 μM) for 30 minutes and then flash frozen in liquid nitrogen immediately after stimulation, prior to processing. Yoked unstimulated slices were also processed to assess basal signaling levels Immunoblotting was performed according to established methods using primary antibodies to p-ERK1/2 (Thr202/Tyr204) (Cell Signaling Technology), ERK1/2 (Cell Signaling Technology), p-Akt (Ser473) (Cell Signaling Technology), Akt (Cell Signaling Technology), […] (Cell Signaling Technology) and S6 (Cell Signaling Technology). Protein levels were measured by densitometry (Quantity One), and quantified as the densitometric signal of phospho-protein divided by the total protein signal in the same lane."}, "AKT": {"tested_on": "AKT", "test": "Immunoblotting of AKT phosphorylation in hippocampal slices", "format": "cell-based, mice", "conditions": "10 μM CDPPB", "protocol": "as §1"}, "hippocampal slices [1]": {"tested_on": "hippocampal slices", "test": "Metabolic labeling of new protein synthesis (35S-Met/Cys incorporation) in hippocampal slices", "format": "cell-based, mice", "conditions": "CDPPB 10 μM, 30 min", "protocol": "Metabolic labeling of new protein synthesis was performed as previously described (Osterweil et al., J. Neurosci. 46, 15616-27 (2010)). Male P28-P32 littermate mice were anesthetized with isoflurane and the hippocampus was rapidly dissected into ice-cold aCSF (in mM: 124 NaCl, 3 KCl, 1.25 NaH2PO4, 26 NaHCO3, 10 dextrose, 1 MgCl2, 2 CaCl2, saturated with 95% O2 and 5% CO2). Hippocampal slices (500 μm) were prepared using a Stoelting Tissue Slicer and transferred into 32.5° C. aCSF (saturated with 95% O2 and 5% CO2) within 5 mM. Slices were incubated in aCSF undisturbed for 3.5-4 h to allow for recovery of basal protein synthesis. Actinomycin D (25 μM) and vehicle or CDPPB (10 μM) was then added to the recovery chamber for 30 mM to inhibit transcription and stimulate mGlu receptors, respectively after which slices were transferred to fresh aCSF containing ˜10 mCi/ml [^35S] Met/Cys (Perkin Elmer) for an additional 30 mM Slices were then homogenized, and labeled proteins isolated by TCA precipitation. Samples were read with a scintillation counter and subjected to a protein concentration assay (Bio-Rad). Data was analyzed as counts per minute per microgram of protein, normalized to the [^35S] Met/Cys aCSF used for incubation and the average incorporation of all samples analyzed and then normalized to percent wild-type for each experiment. Statistical significance was determined using unpaired t-tests.\nTo determine the role of β-arrestin2 in mGlu5-mediated protein synthesis, hippocampal slices from male Arrb2^+/− and wild-type (WT) littermates were stimulated with a selective […] positive modulator of mGlu5, 3-Cyano-N-(1,3-diphenyl-1H-pyrazol-5-yl) benzamide (CDPPB, 10 μM, 30 minutes), and the incorporation of ^35S-methionine/cysteine into new protein was measured. mGlu5 activation caused a parallel increase in protein synthesis (FIG. 1A) and ERK1/2 phosphorylation (FIG. 1B) in WT slices, which were both absent in slices from Arrb2^+/− mice. […]"}, "ribosomal protein S6": {"tested_on": "ribosomal protein S6", "test": "Immunoblotting of ribosomal protein S6 phosphorylation in hippocampal slices", "format": "cell-based, mice", "conditions": "10 μM CDPPB", "protocol": "as §1"}, "hippocampal neurons": {"tested_on": "hippocampal neurons", "test": "Fluorescence-based calcium imaging in brain slices (Fluo-4 AM)", "format": "cell-based, mice", "conditions": "DHPG 25 μM", "protocol": "Hippocampal slices were prepared as described for electrophysiology experiments and recovered in aCSF for 2 hours at 32° C. Slices were then moved to a small recovery chamber and incubated in oxygenated aCSF containing 20 μM fluo-4-acetoxymethyl ester (fluo-4 AM; ThermoFisher) and 0.1% Pluronic F-127 (ThermoFisher) for 1 hour in the dark. After 1 hour, slices were then washed with oxygenated aCSF containing 1 μM tetrodotoxin (Abcam) and 50 μM D-AP5 (Tocris) for 20 minutes in a recording chamber. A low-powered (4×) objective was used to identify the brain region of interest. CA1 pyramidal neurons were visualized using a 40× water immersion objective and a Nikon Eclipse E600FN microscope.\nChanges in Ca^2+ fluorescence were monitored in the presence of 1 μM tetrodotoxin and 50 μM D-AP5 using a Hamamatsu ORCA-100 camera, HClmage software (Hamamatsu), and a mercury arc-lamp and power supply (Nikon). After a 10 second baseline, 25 μM (S)-3,5-DHPG was bath applied. […] Data were analyzed using Image J software. Increases in Ca^2+ mobilization in hippocampal neurons were reported as changes in relative fluorescence divided by the baseline fluorescence (ΔF/F).\nTo assay the integrity of Gq signaling, calcium mobilization in hippocampal slices from WT and Arrb2^+/− animals was measured using the cell-permeable calcium fluorescent dye Fluo4-AM. […]"}, "mice": {"tested_on": "mice", "test": "MK801-induced hyperlocomotion in the open field", "format": "in vivo", "conditions": "for MK801-induced hyperlocomotion: MTEP 10 mg/kg i.p. pre-treatment, MK801 0.3 mg/kg", "protocol": "To determine the effects of genotype on MK801-induced hyperlocomotion, mice were habituated in the open field (40 cm×40 cm×40 cm box) for 60 min, followed by the administration of vehicle or MK801 and locomotor activity was recorded for another 60 mM. To determine the effects of MTEP by genotype on MK801-induced hyperlocomotion, mice were habituated in the open field for 30 min, followed by the intraperitoneal (i.p.) administration of MTEP (10 mg/kg at a dosing volume of 10 ml/kg). After an additional 30 mM, MK801 (0.3 mg/kg at a dosing volume of 10 ml/kg) was administered i.p. and locomotor activity was recorded for another 60 mM. The time course of drug-induced changes in ambulation was expressed as cm traveled/5 mM over the 120-min session. Sessions were recorded using Plexon's CINEPLEX® Studio and analyzed using Plexon's CINEPLEX® Editor and code written in MATLAB. MK801-induced locomotor activity was scored and analyzed using the average of the final 5 minutes (minute 115-120) per cohort."}, "hippocampal slices [2]": {"tested_on": "hippocampal slices", "test": "mGlu-LTD (DHPG-induced) field recordings in hippocampal slices", "format": "cell-based, mice", "protocol": "Slices were prepared as described previously (Dolen et al., Neuron 6, 955-56 (2007)). Acute hippocampal slices (350 μm) were prepared from P28-35 animals in ice-cold dissection buffer containing (in mM): NaCl 87, Sucrose 75, KCl2.5, NaH2PO4 1.25, NaHCO3 25, CaCl2 0.5, MgSO4 7, Ascorbic acid 1.3, and D-glucose 10 (saturated with 95% O2/5% CO2). Immediately following slicing the CA3 region was removed. Slices were recovered in artificial cerebrospinal fluid (aCSF) containing (in mM): NaCl 124, KCl5, NaH2PO4 1.23, NaHCO3 26, CaCl2 2, MgCl2 1, and D-glucose 10 (saturated with 95% O2/5% CO2) at 32.5° C. for ≥3 hours prior to recording.\nField recordings were performed in a submersion chamber, perfused with aCSF (2-3 ml/min) at 30° C. Field EPSPs (fEPSPs) were recorded in CA1 stratum radiatum with extracellular glass electrodes (1-2 MΩ) filled with aCSF. Baseline responses were evoked by stimulation of the Schaffer collaterals at 0.033 Hz with a 2-contact cluster electrode (FHC) using a 0.2 ms stimulus yielding 40-60% of the maximal response. fEPSP recordings were filtered at 0.1 Hz-1 kHz, digitized at 10 kHz, and analyzed using pClamp9 (Axon Instruments). […]\nPaired pulse facilitation was induced by applying two pulses at different interstimulus intervals. Facilitation was measured by the ratio of the fEPSP slope of stimulus 2 to stimulus 1. […]"}},
  "note": "“Also recorded” adds a separate entry of the source.",
  "data": [
    {"compound": "N#Cc1cccc(C(=O)Nc2cc(-c3ccccc3)nn2-c2ccccc2)c1", "note": "[CDPPB, 3-Cyano-N-(1,3-diphenyl-1H-pyrazol-5-yl) benzamide]", "values": [
      {"measurement": "ERK1/2 phosphorylation compared with vehicle", "setting": "ERK1/2; Arrb1+/− slices", "result": "elevated"},
      {"measurement": "ERK1/2 phosphorylation compared with vehicle", "setting": "ERK1/2; Arrb2+/− slices", "result": "no change"},
      {"measurement": "ERK1/2 phosphorylation compared with vehicle", "setting": "ERK1/2; WT slices", "result": "elevated"},
      {"measurement": "AKT phosphorylation compared with vehicle", "setting": "AKT; WT and Arrb1+/− slices", "result": "Neither WT nor Arrb1^+/− slices stimulated with CDPPB show elevated AKT phosphorylation"},
      {"measurement": "AKT phosphorylation compared with vehicle", "setting": "AKT; WT and Arrb2+/− slices", "result": "Neither WT nor Arrb2^+/− slices stimulated with CDPPB show elevated AKT phosphorylation"},
      {"measurement": "Protein synthesis compared with vehicle", "setting": "hippocampal slices [1]; Arrb1+/− slices", "result": "similarly elevated"},
      {"measurement": "Protein synthesis compared with vehicle", "setting": "hippocampal slices [1]; Arrb2+/− slices", "result": "no effect"},
      {"measurement": "Protein synthesis compared with vehicle", "setting": "hippocampal slices [1]; WT slices", "result": "similarly elevated"},
      {"measurement": "S6 phosphorylation compared with vehicle", "setting": "ribosomal protein S6; WT and Arrb1+/− slices", "result": "Neither WT nor Arrb1^+/− slices stimulated with CDPPB show elevated S6 phosphorylation"},
      {"measurement": "S6 phosphorylation compared with vehicle", "setting": "ribosomal protein S6; WT and Arrb2+/− slices", "result": "Neither WT nor Arrb2^+/− slices stimulated with CDPPB show elevated S6 phosphorylation"}
    ]},
    {"compound": "COc1ccc2c(c1)CC[C@@H]1[C@@H]2CC[C@]2(C)[C@@H](NCCCCCCN3C(=O)C=CC3=O)CC[C@@H]12", "note": "[U73122]", "values": [
      {"measurement": "DHPG-induced changes in calcium fluorescence", "setting": "hippocampal neurons; pretreatment with 10 μM U73122, data not shown", "result": "completely blocked"}
    ]},
    {"compound": "C[C@]12N[C@H](Cc3ccccc31)c1ccccc12", "note": "[MK801]", "values": [
      {"measurement": "Locomotor activity compared to vehicle", "setting": "mice; MK801 0.3 mg/kg i.p., 60 minutes post-treatment, WT and Arrb2+/− mice (comparable)", "result": "hyperlocomotion"}
    ]},
    {"compound": "C[C@@H]1C[C@@H]([C@H](O)CC2CC(=O)NC(=O)C2)C(=O)[C@@H](C)C1", "note": "[cycloheximide]", "values": [
      {"measurement": "DHPG-LTD (25 μM, 5 min) magnitude", "setting": "hippocampal slices [2]; Arrb2+/− slices, cycloheximide 60 μM, listed as CHX", "result": "unaffected; also recorded: no effect"},
      {"measurement": "DHPG-LTD (25 μM, 5 min) magnitude", "setting": "hippocampal slices [2]; WT slices, cycloheximide 60 μM pretreatment", "result": "significantly diminished; also recorded: significantly attenuated"}
    ]},
    {"compound": "N[C@H](C(=O)O)c1cc(O)cc(O)c1", "note": "[DHPG, (S)-3,5-Dihydroxyphenylglycine]", "values": [
      {"measurement": "Ca2+-mediated fluorescence", "setting": "hippocampal neurons; 1 min, WT and Arrb2+/− slices (not significantly different)", "result": "rapid increase"}
    ]},
    {"compound": "Cc1nc(C#Cc2cccnc2)cs1", "note": "[MTEP, 3-[(2-Methyl-1,3-thiazol-4-yl)ethynyl]-pyridine]", "values": [
      {"measurement": "MK801-induced hyperlocomotion", "setting": "mice; Arrb2+/− mice", "result": "continues to exacerbate; also recorded: potentiates"},
      {"measurement": "MK801-induced hyperlocomotion", "setting": "mice; WT mice", "result": "significantly potentiates"}
    ]}
  ]
}
